The values that follow come from patent US9845291B2, “Estrogen receptor modulators and uses thereof” (Genentech, Inc., priority 2014, dated 2017).

In this assay the target is estrogen receptor alpha (ESR1) (Homo sapiens, UniProt P03372). Put plainly: cell-based. As to conditions: for ER-alpha MCF7 HCS Sinf: MCF7 breast cancer cells, 4 hours, plateau of the maximal effect, DMSO and Fulvestrant define 0% and 100% changes in ESR1. Here is the method:
Where more than one name is associated with a Formula I compound or intermediate, the chemical structure shall define the compound.
Cell plates were incubated at 37° C., for 4 hours. Fixation and permeabilization were carried out using a Biotek EL406 plate washer and dispenser as follows. […] Samples were incubated 30 minutes. Well contents was aspirated and 50 ul/well of Phosphate Buffered Saline (PBS) containing 0.5% w/v bovine serum albumen, 0.5% v/v Triton X-100 (Antibody Dilution Buffer) was added to each well. Samples were incubated for 30 minutes. Well contents were aspirated and washed 3 times with 100 ul/well of PBS. Immunofluorescence staining of estrogen receptor alpha (ESR1) was carried out using a Biotek EL406 plate washer and dispenser as follows. […] Samples were incubated for 2 hours at room temperature. Samples were washed 4 times with 100 ul/well of PBS. […] Samples were incubated for 2 hours at room temperature. Samples were washed 3 times with 100 ul/well of PBS using a Biotek EL406. Quantitative fluorescence imaging of ESR1 was carried out using a Cellomics Arrayscan V (Thermo). […] Channel 1 (DNA stain) was used to define the nuclear region (Circ). […] Data analysis was carried out using Genedata Screener Software, with DMSO and 5 nM Fulvestrant treated samples being used to define the 0% and 100% changes in ESR1. The “Robust Fit” method was used to define the inflexion point of curve (EC50) and the plateau of the maximal effect (Sin f).

estrogen receptor alpha (ESR1), sequence (P03372 whole entry): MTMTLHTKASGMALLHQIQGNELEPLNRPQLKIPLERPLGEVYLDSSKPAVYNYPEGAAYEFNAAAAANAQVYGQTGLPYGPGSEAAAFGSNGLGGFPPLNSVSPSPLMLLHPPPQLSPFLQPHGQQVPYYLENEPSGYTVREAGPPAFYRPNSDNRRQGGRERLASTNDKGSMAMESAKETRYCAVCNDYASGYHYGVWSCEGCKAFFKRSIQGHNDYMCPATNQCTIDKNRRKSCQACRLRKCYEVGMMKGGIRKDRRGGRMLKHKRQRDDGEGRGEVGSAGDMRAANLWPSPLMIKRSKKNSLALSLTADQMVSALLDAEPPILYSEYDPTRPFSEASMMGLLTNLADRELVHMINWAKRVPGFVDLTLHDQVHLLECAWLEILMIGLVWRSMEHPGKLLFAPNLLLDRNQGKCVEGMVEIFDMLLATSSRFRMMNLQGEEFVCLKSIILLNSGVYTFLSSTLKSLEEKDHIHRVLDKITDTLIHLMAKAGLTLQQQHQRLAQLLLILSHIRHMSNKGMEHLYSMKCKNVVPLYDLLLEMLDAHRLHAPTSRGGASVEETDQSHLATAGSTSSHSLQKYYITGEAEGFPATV

`Cc1c(-c2ccc(O)cc2)n(Cc2ccc(OCCN3CC(CF)C3)cc2)c2ccc(O)c(F)c12` [Example 48, 4-fluoro-1-[[4-[2-[3-(fluoromethyl)azetidin-1-yl]ethoxy]phenyl]methyl]-2-(4-hydroxyphenyl)-3-methyl-indol-5-ol]: the midpoint of the response, the EC50, lay at 0.662 nM and the “ER-alpha MCF7 HCS Sinf” value is given as −92.8%.
On the same counts, the results for `O=C(c1ccc(OCCN2CC(CF)C2)cc1)c1c(-c2ccccc2)sc2cc(O)ccc12` [Example 39, (4-(2-(3-(fluoromethyl)azetidin-1-yl)ethoxy)phenyl)(6-hydroxy-2-phenylbenzo[b]thiophen-3-yl)methanone] are 1.6 nM and −96%.
With `Cc1cc(-c2c(C)c3cc(O)ccc3n2Cc2ccc(OCCN3CC(CF)C3)cc2)ccc1O` [Example 41, 1-[[4-[2-[3-(fluoromethyl)azetidin-1-yl]ethoxy]phenyl]methyl]-2-(4-hydroxy-3-methyl-phenyl)-3-methyl-indol-5-ol], the EC50 was 0.0518 nM and the “ER-alpha MCF7 HCS Sinf” value is given as −97.8%.
For `Oc1ccc(-c2onc(-c3ccccc3Cl)c2-c2ccc(OCCN3CC(CF)C3)cc2)cc1` [Example 14, 4-(3-(2-Chlorophenyl)-4-(4-(2-(3-(fluoromethyl)azetidin-1-yl)ethoxy)phenyl)isoxazol-5-yl)phenol] the same measures were 0.21 nM and −99%.
On the same counts, the results for `CS(=O)(=O)c1ccc(-c2ccc3cc(O)ccc3c2C(=O)c2ccc(OCCN3CC[C@@H](CF)C3)cc2)cc1` [Example 67, [4-[2-[(3R)-3-(fluoromethyl)pyrrolidin-1-yl]ethoxy]phenyl]-[6-hydroxy-2-(4-methylsulfonylphenyl)-1-naphthyl]methanone] are 0.414 nM and −97.6%.
On the same counts, the results for `O=C(c1ccc(OCCN2CC(CF)C2)c(F)c1)c1c(-c2ccccc2Cl)nsc1-c1ccc(O)cc1` [Example 72, [3-(2-Chloro-phenyl)-5-(4-hydroxy-phenyl)-isothiazol-4-yl]-{3-fluoro-4-[2-(3-fluoromethyl-azetidin-1-yl)-ethoxy]-phenyl}-methanone] are 0.0159 nM and −99.0%.
As for `FC[C@@H]1CCN(CCOc2ccc(/C(=C(\c3ncc(C(F)(F)F)cc3Cl)C3CCC3)c3ccc4[nH]nc(F)c4c3)cc2)C1` [Example 27, (R,E)-5-(2-(3-Chloro-5-(trifluoromethyl)pyridin-2-yl)-2-cyclobutyl-1-(4-(2-(3-(fluoromethyl)pyrrolidin-1-yl)ethoxy)phenyl)vinyl)-3-fluoro-1H-indazole], the half-maximal effective concentration (EC50) was found to be 0.85 nM and the “ER-alpha MCF7 HCS Sinf” value is reported as −73%.
As to `Oc1ccc([C@H]2Sc3cc(O)ccc3O[C@H]2c2ccc(OCCN3CC(CF)C3)cc2)cc1` (racemic) [Example 29, 2-(4-(2-(3-(Fluoromethyl)azetidin-1-yl)ethoxy)phenyl)-3-(4-hydroxyphenyl)-2,3-dihydrobenzo[b][1,4]oxathiin-6-ol], a half-maximal effect (EC50) was put at 0.55 nM and the “ER-alpha MCF7 HCS Sinf” value was −101%.
For `Cc1c(-c2ccc(O)cc2)n(Cc2ccc(OCCN3CC(CF)C3)cc2)c2ccccc12` [Example 5, 4-(1-(4-(2-(3-(Fluoromethyl)azetidin-1-yl)ethoxy)benzyl)-3-methyl-1H-indol-2-yl)phenol] the same measures were 65 nM and −93%.
For `CC/C(=C(\c1ccc(O)cc1)c1ccc(OCCN2CC[C@@H](CF)C2)cc1)c1ccccc1` [Example 22, (R,Z)-4-(1-(4-(2-(3-(Fluoromethyl)pyrrolidin-1-yl)ethoxy)phenyl)-2-phenylbut-1-en-yl)phenol] the same measures were 0.58 nM and −83%.
On the same counts, the results for `Cc1c(-c2ccc(F)cc2)n(Cc2ccc(OCCN3CC(CF)C3)cc2)c2ccc(O)cc12` [Example 3, 1-(4-(2-(3-(Fluoromethyl)azetidin-1-yl)ethoxy)benzyl)-2-(4-fluorophenyl)-3-methyl-1H-indol-5-ol] are 5.5 nM and −92%.
Turning to `CC/C(=C(\c1ccccc1)c1ccc(OCCN2CC[C@@H](CF)C2)cc1)c1ccccc1` [Example 19, (R,Z)-1-(2-(4-(1,2-Diphenylbut-1-en-yl)phenoxy)ethyl)-3-(fluoromethyl)pyrrolidine], the concentration for a half-maximal effect (EC50) was determined as 15 nM and the “ER-alpha MCF7 HCS Sinf” value is reported as −75%.
Turning to `CC/C(=C(/c1ccc(OCCN2CC(CF)C2)cc1)c1ccc2[nH]ncc2c1)c1ccc(F)cc1Cl` [Example 82, 5-[(E)-2-(2-chloro-4-fluoro-phenyl)-1-[4-[2-[3-(fluoromethyl)azetidin-1-yl]ethoxy]phenyl]but-1-enyl]-1H-indazole], the response was half-maximal at 0.0225 nM (EC50) and the “ER-alpha MCF7 HCS Sinf” value is listed as −96.9%.
For `CC/C(=C(\c1ccc(O)cc1)c1ccc(OCCN2CC(CF)C2)cc1)c1ccccc1` [Example 23], the EC50 was found to be 0.59 nM and the “ER-alpha MCF7 HCS Sinf” value is −95%.
For `O=C(c1ccc(OCCN2CC(CF)C2)cc1)c1c(-c2ccc(O)cc2)sc2cc(O)ccc12` [Example 9, (4-(2-(3-(fluoromethyl)azetidin-1-yl)ethoxy)phenyl)(6-hydroxy-2-(4-hydroxyphenyl)benzo[b]thiophen-3-yl)methanone] the same measures were 1.1 nM and −97%.
On the same counts, the results for `CC/C(=C(\c1ccc(O)cc1)c1ccc(OC[C@H](C)N2CC[C@@H](CF)C2)cc1)c1ccccc1` [Example 24, 4-((Z)-1-(4-((S)-2-((R)-3-(Fluoromethyl)pyrrolidin-1-yl)propoxy)phenyl)-2-phenylbut-1-en-1-yl)phenol] are 0.18 nM and −58%.
On the same counts, the results for `Cc1c(-c2ccc(O)c(F)c2)n(Cc2ccc(OC[C@H](C)N3CC[C@@H](CF)C3)cc2)c2ccc(O)cc12` [Example 45, 2-(3-fluoro-4-hydroxy-phenyl)-1-[[4-[(2S)-2-[(3R)-3-(fluoromethyl)pyrrolidin-1-yl]propoxy]phenyl]methyl]-3-methyl-indol-5-ol] are 0.00632 nM and −97.5%.
With `Cc1c(-c2ccc(O)cc2Cl)n(Cc2ccc(OCCN3CC[C@@H](CF)C3)cc2)c2ccc(O)cc12` [Example 55, 2-(2-chloro-4-hydroxyphenyl)-1-(4-(2-((R)-3-(fluoromethyl)pyrrolidin-1-yl)ethoxy)benzyl)-3-methyl-1H-indol-5-ol], the EC50 was 0.0199 nM and the “ER-alpha MCF7 HCS Sinf” value is −98.7%.
For `Cc1c(-c2ccccc2)n(Cc2ccc(OCCN3CC(CF)C3)cc2)c2ccccc12` [Example 4, 1-(4-(2-(3-(Fluoromethyl)azetidin-1-yl)ethoxy)benzyl)-3-methyl-2-phenyl-1H-indole], it took 200 nM to reach a half-maximal effect (EC50) and the “ER-alpha MCF7 HCS Sinf” value was −81%.
On the same counts, the results for `Cc1c(-c2ccc(O)c(Cl)c2)n(Cc2ccc(OCCN3CC(CF)C3)cc2)c2ccc(O)cc12` [Example 46, 2-(3-chloro-4-hydroxy-phenyl)-1-[[4-[2-[3-(fluoromethyl)azetidin-1-yl]ethoxy]phenyl]methyl]-3-methyl-indol-5-ol] are 0.03 nM and −97.8%.
Regarding `CCN(Cc1ccc(OCCN2CC(CF)C2)cc1)c1cc(OC)ccc1C1CCc2cc(O)ccc2C1` (centres unmarked) [Example 13, 6-(2-(Ethyl(4-(2-(3-(fluoromethyl)azetidin-1-yl)ethoxy)benzyl)amino)-4-methoxyphenyl)-5,6,7,8-tetrahydronaphthalen-2-ol], a half-maximal response (EC50) required 7.5 nM and the “ER-alpha MCF7 HCS Sinf” value is reported as −55%.
With `Oc1cccc([C@@H]2Sc3c(ccc(O)c3F)O[C@@H]2c2ccc(OCCN3CC(CF)C3)cc2)c1` [Example 60, (2R,3S)-5-fluoro-2-(4-(2-(3-(fluoromethyl)azetidin-1-yl)ethoxy)phenyl)-3-(3-hydroxyphenyl)-2,3-dihydrobenzo[b][1,4]oxathiin-6-ol], the EC50 was determined as 15.8 nM and the “ER-alpha MCF7 HCS Sinf” value was −91.9%.
For `CS(=O)(=O)c1ccc(-c2ccc3c(F)c(O)ccc3c2Oc2ccc(OCCN3CC[C@@H](CF)C3)cc2)cc1` [Example 79, (R)-1-fluoro-5-(4-(2-(3-(fluoromethyl)pyrrolidin-1-yl)ethoxy)phenoxy)-6-(4-(methylsulfonyl)phenyl) naphthalen-2-ol], the concentration giving a half-maximal response (EC50) was 0.072 nM and the “ER-alpha MCF7 HCS Sinf” value was −89.6%.
For `Cc1c(-c2ccc(O)cc2)n(Cc2ccc(OCCN3CC(CF)C3)cc2)c2cc(F)c(O)cc12` [Example 49, 6-fluoro-1-(4-(2-(3-(fluoromethyl)azetidin-1-yl)ethoxy)benzyl)-2-(4-hydroxyphenyl)-3-methyl-1H-indol-5-ol] the same measures were 0.187 nM and −95.6%.
On the same counts, the results for `CC/C(=C(\c1ccccc1)c1ccc(OC[C@H](C)N2CC[C@@H](CF)C2)cc1)c1ccccc1` [Example 20, (R)-1-((S)-1-(4-((Z)-1,2-Diphenylbut-1-en-1-yl)phenoxy)propan-2-yl)-3-(fluoromethyl)pyrrolidine] are 24 nM and −73%.
